Assay results from US4281121A, “1,3,4-Thiadiazole-2-carboxylic acid derivatives, process for making the same and fungicidal and nematocidal compositions containing same” (Schering Aktiengesellschaft, priority 1978, dated 1981).
Where two headings read alike, the source gives them in different places.

Legend:
[1] = tested on: Helminthosporium gramineum; test: Seed treatment in open field tests for infestation by Helminthosporium gramineum (barley); format: in vivo
Method: Seed treatment in open field tests for infestation by Helminthosporium gramineum
The active agents were used in the form of pulverulent compositions. After about 8 months in case of winter barley and after about 3 months in case of summer barley the infested plants were counted and the activity was calculated by the formula [formula]

Pythium ultimum = test: Threshold concentration test for use of the compounds against Pythium ultimum (infested soil, garden peas); format: in vivo; set-up: key to root evaluation (1-4): 4: white roots without fungous necrosis; 3: white roots, minor fungous necrosis; 2: brown roots, already more pronounced fungous necrosis; 1: heavy fungous necrosis, roots rotted; conditions: for root evaluation (1-4): 3 weeks; for number of sound peas: 20 grains per dish, 3 weeks at 20-24° C.
Method in brief: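 Garden pea seeds, 20 per dish, went straight into Pythium ultimum-infested soil into which 20% pulverulent formulations had been uniformly blended. Sound plants counted and roots rated 1–4 after three weeks of hothouse growth at 20–24 °C.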

Helminthosporium gram = conditions: about 5 weeks
Method: Treatment of barley seeds infested with Helminthosporium gram
After emergence, the plants were subjected to illumination for 12 hours per day. After about 5 weeks the infested plants were counted and the total number of plants for each test were also counted. The active agents tested were used as pulverulent compositions.

Septoria nodorum = test: Treatment of oat seeds against Septoria nodorum; format: in vivo; conditions: 50 g active agent/100 kg seeds; 4 weeks
Method: Effects of the treatment of oat seeds against Septoria nodorum
They were then seeded on a moist substrate for germination. As a control untreated seeds were likewise seeded. At about 6° C. the seed was incubated in an air-conditioned chamber until after 4 weeks the proportion of diseased seeds could be determined and the activity of the fungicidal compounds was calculated on the basis of the following formula: [formula]
The active agents were applied in the form of 20% concentration pulverulent compositions.

Tilletia caries [2] = test: Treatment of oat seeds infested with Tilletia caries (spore germination); format: in vivo
Fusarium nivale = test: Treatment of rye seeds against Fusarium nivale; format: in vivo; conditions: 100 g/100 kg; about 4 weeks
Method: Treatment of rye seeds against Fusarium nivale
Rye seeds with a natural infestation by Fusarium nivale were seeded in earth filled pots and left for germination at about 6° C. Part of the seeds was treated before seeding with the active agents as appears from the subsequent table and part was untreated. After emergence of the seedlings the plants were illuminated with artificial light for 12 hours each day. After about 4 weeks the degree of infestation was determined in percentages. The fungicidal activity was calculated on the basis of the following formula: [formula]
The active agents were used in the form of 20% concentration compositions.

Plasmopara viticola = test: Prophylactic leaf treatment of grapevines in the hothouse against Plasmopara viticola; format: in vivo
Method in brief: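 Activity derived from average percentage of leaf surface infested per treatment. Plants with 5–8 leaves received preventive spray (20% spray powder formulation), then undersides inoculated with ~20,000 sporangia/ml; held at 22–24 °C with full humidity, reduced to 30–70% for 3–4 days, then saturated one day.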

[3] = tested on: root gall nematodes (Meloidogyne sp.); test: Threshold concentration test with root gall nematodes (cucumber, infested soil); format: in vivo; conditions: 28 days at 24-27° C.
Description: Threshold concentration test with root gall nematodes (Meloidogyne sp.)
20% concentration pulverulent active agents as listed in the table below were mixed in a uniform manner with a soil which had been heavily infested by root gall nematodes. After waiting for 3 days the treated soil was placed in two clay dishes of a capacity of 0.5 liter. 10 grain of cucumber seeds of the type "Guntruud" were placed into each dish.
Thereafter, the contents of the dishes were permitted to develop at a temperature of 24° to 27° C. for a time of 28 days in a hothouse. The cucumber roots were then washed out and were examined in a water bath regarding nematode infestation. The reduction of the infestation by the active agents as compared with untreated control material was determined in percentages.
The nematocidal activity was calculated by the formula
A=the infestation in the untreated control material and
B=the infestation after treatment.

Piricularia oryzae = format: in vivo; conditions: concentration of active agent 0.1 (percentages); 5 days
Alternaria solani = test: Inhibition of fungus in a nutrient solution: Alternaria solani; format: cell-based; conditions: 6 days at 21-23° C.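 Note: 0 means no fungus growth and higher grades mean more surface covered.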
Fusarium avenaceum [4] = test: Inhibition of fungus in a nutrient solution: Fusarium avenaceum; format: cell-based; conditions: 6 days at 21-23° C.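 Note: 0 means no fungus growth and higher grades mean more surface covered.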
Method: Inhibition of fungus in a nutrient solution
20 ml of a nutrient solution of grape juice and water (1:1) were filled into a glass vial of a 100 ml capacity and were mixed with the pulverulent active agents which appear from the subsequent table. Thereafter, the solution was inoculated with conidia (spores) of the test fungi.
After an incubation time of 6 days at 21° to 23° C. the fungus development on the surface of the nutrient solution was evaluated. The test fungi used were the following: Penicillium digitatum, Botrytis cinerea, Alternaria solani, Fusarium avenaceum.
The evaluation was carried out at a scale from 0 to 5 as follows: […]

Penicillium digitatum = test: Inhibition of fungus in a nutrient solution: Penicillium digitatum; format: cell-based; conditions: 6 days at 21-23° C.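 Note: 0 means no fungus growth and higher grades mean more surface covered.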
Botrytis cinerea = test: Inhibition of fungus in a nutrient solution: Botrytis cinerea; format: cell-based; conditions: 6 days at 21-23° C.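 Note: 0 means no fungus growth and higher grades mean more surface covered.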
Fusarium avenaceum [5] = test: Threshold concentration test in case of Fusarium avenaceum (infested soil, garden peas); format: in vivo; conditions: for number of sound peas: 20 grains per dish, 18 days at 20-24° C.; for root evaluation (1-4): 18 days
Method in brief: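 Soil heavily infested with Fusarium avenaceum was mixed uniformly with a 20% powder formulation of active agent, then sown immediately with 20 garden pea seeds ('Wunder von Kelvedon') per dish. After 18 days in a greenhouse at 20° to 24° C., sound plants were counted and roots scored on a 1–4 scale.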

Tilletia caries [6] = test: Seed treatment in open field tests regarding infestation by Tilletia caries (oats); format: in vivo; conditions: summer oats, about 4 months
[7] = summer barley, 25 g active agent/100 kg barley, about 3 months
[8] = summer barley, 50 g active agent/100 kg barley, about 3 months
[9] = summer barley, 100 g active agent/100 kg barley, about 3 months
[10] = concentration of active agent 0.025 (unit not given)
[11] = winter barley, 50 g active agent/100 kg barley, about 8 months
[12] = winter barley, 100 g active agent/100 kg barley, about 8 months

| SMILES | % activity [1, 8] | % activity [1, 9] | root evaluation (1-4) (Pythium ultimum; 20 mg/l soil) | number of sound peas (Pythium ultimum; 20 mg/l soil) | root evaluation (1-4) (Pythium ultimum; 40 mg/l soil) | number of sound peas (Pythium ultimum; 40 mg/l soil) | root evaluation (1-4) (Pythium ultimum; 80 mg/l soil) | number of sound peas (Pythium ultimum; 80 mg/l soil) | % activity (Helminthosporium gram; 10 g active agent per 100 kg) | % activity (Helminthosporium gram; 20 g active agent per 100 kg) | % activity (Helminthosporium gram; 50 g active agent per 100 kg) | % activity (Septoria nodorum) | % activity (Tilletia caries [2]; 10 g active agent per 100 kg) | % activity (Tilletia caries [2]; 20 g active agent per 100 kg) | % activity (Tilletia caries [2]; 50 g active agent per 100 kg) | % activity (Fusarium nivale) | further results |
| --- | --- | --- | --- | --- | --- | --- | --- | --- | --- | --- | --- | --- | --- | --- | --- | --- | --- |
| C=CCNC(=O)c1nnc(S(=O)(=O)CC)s1 [5-ethylsulfonyl-1,3,4-thiadiazole-2-carboxylic acid-allylamide] | 100% | 100% | 1 | 11 | 4 | 17 | 4 | 16 | 100% | 100% | 100% | 72% | 100% | 100% | 100% | 94% | % activity [1, 7]: 97%; % activity (Plasmopara viticola; concentration of active agent 0.001 (unit not given)): 98%; % activity (Plasmopara viticola; concentration of active agent 0.005 (unit not given)): 96%; % activity (Plasmopara viticola; [10]): 99.4% |
| CSc1nnc(C#N)s1 [5-methylthio-1,3,4-thiadiazole-2-carbonitrile] |  |  |  |  |  |  |  |  |  |  |  |  |  |  |  |  | Percentage reduction of infestation ([3]; 50 mg per liter soil): 95%; Percentage reduction of infestation ([3]; 100 mg per liter soil): 99%; Percentage reduction of infestation ([3]; 200 mg per liter soil): 100% |
| CCS(=O)(=O)c1nnc(C(N)=O)s1 [5-ethylsulfonyl-1,3,4-thiadiazole-2-carboxamide] |  |  | 2 | 18 | 4 | 18 | 4 | 20 | 97% | 100% | 100% |  | 93% | 100% |  | 99.2% | % activity (Tilletia caries [2]; 5 g active agent per 100 kg): 87% |
| CCS(=O)(=O)c1nnc(C(=O)N(C)C)s1 [5-ethylsulfonyl-1,3,4-thiadiazole-2-carboxylic acid-dimethylamide] | 99.5% | 100% | 4 | 13 | 4 | 13 | 4 | 15 |  | 94% | 100% | 86% | 100% | 100% | 100% | 100% | % activity [1, 11]: 99.5%; % activity [1, 12]: 100%; % activity (Piricularia oryzae): 90% |
| CCS(=O)(=O)c1nnc(C(=O)NC(C)C)s1 [5-ethylsulfonyl-1,3,4-thiadiazole-2-carboxylic acid-isopropylamide] | 100% | 99.8% | 3 | 16 | 3 | 15 | 4 | 16 | 95% | 98% | 100% | 86% | 100% | 100% | 100% |  | % activity [1, 7]: 96%; % activity (Piricularia oryzae): 99%; % activity (Plasmopara viticola; [10]): 92% |
| CCS(=O)(=O)c1nnc(C#N)s1 [5-ethylsulfonyl-1,3,4-thiadiazole-2-carbonitrile] |  |  | 2 | 19 | 4 | 20 | 4 | 20 |  |  |  |  |  |  |  | 92% | fungus development on the surface of the nutrient solution (0-5) (Alternaria solani; 0.002%): 0; fungus development on the surface of the nutrient solution (0-5) (Alternaria solani; 0.004%): 0; fungus development on the surface of the nutrient solution (0-5) (Fusarium avenaceum [4]; 0.002%): 0; fungus development on the surface of the nutrient solution (0-5) (Fusarium avenaceum [4]; 0.004%): 0; fungus development on the surface of the nutrient solution (0-5) (Penicillium digitatum; 0.002%): 0; fungus development on the surface of the nutrient solution (0-5) (Penicillium digitatum; 0.004%): 0; fungus development on the surface of the nutrient solution (0-5) (Botrytis cinerea; 0.002%): 1; fungus development on the surface of the nutrient solution (0-5) (Botrytis cinerea; 0.004%): 0; number of sound peas (Fusarium avenaceum [5]; 25 mg/l soil): 18; root evaluation (1-4) (Fusarium avenaceum [5]; 25 mg/l soil): 4; number of sound peas (Fusarium avenaceum [5]; 50 mg/l soil): 20; root evaluation (1-4) (Fusarium avenaceum [5]; 50 mg/l soil): 4; number of sound peas (Fusarium avenaceum [5]; 100 mg/l soil): 20; root evaluation (1-4) (Fusarium avenaceum [5]; 100 mg/l soil): 4 |
| CCS(=O)(=O)c1nnc(C(=O)NC)s1 [5-ethylsulfonyl-1,3,4-thiadiazole-2-carboxylic acid-methylamide] | 100% | 100% | 4 | 17 | 4 | 15 | 4 | 19 |  | 91% | 97% | 72% | 100% | 100% | 100% | 100% | % activity [1, 11]: 100%; % activity [1, 12]: 100% |
| CC[S+]([O-])c1nnc(C(N)=O)s1 (centres unmarked) [5-ethylsulfinyl-1,3,4-thiadiazole-2-carboxamide] |  |  | 2 | 15 | 4 | 20 | 4 | 20 | 99% | 100% | 100% |  | 96% | 100% |  | 93% | % activity (Tilletia caries [6]; 25 g active agent/100 kg): 100%; % activity (Tilletia caries [6]; 50 g active agent/100 kg): 100%; % activity (Tilletia caries [2]; 5 g active agent per 100 kg): 78% |
